Measurements: PubChem BioAssay (NCI)
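48-hour exposure; five concentrations; linearly interpolated endpoints. GI50 marks 50% less growth. TGI marks complete inhibition of growth.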

Assays:
Experiment in all cases: DTP human tumour cell line panel, 48 h
ACHN renal = test system: ACHN renal
SR leukemia = test system: SR leukemia
OVCAR-5 ovarian = test system: OVCAR-5 ovarian
HCC-2998 colon = test system: HCC-2998 colon
CAKI-1 renal = test system: CAKI-1 renal
NCI-H23 lung = test system: NCI-H23 lung
MOLT-4 leukemia = test system: MOLT-4 leukemia
SK-MEL-2 melanoma = test system: SK-MEL-2 melanoma
UO-31 renal = test system: UO-31 renal
BT-549 breast = test system: BT-549 breast
HOP-92 NSCLC = test system: HOP-92 NSCLC
LOX IMVI melanoma = test system: LOX IMVI melanoma
TK-10 renal = test system: TK-10 renal
PC-3 prostate = test system: PC-3 prostate
SF-268 CNS = test system: SF-268 CNS
UACC-257 melanoma = test system: UACC-257 melanoma
HOP-62 NSCLC = test system: HOP-62 NSCLC
NCI-H522 lung = test system: NCI-H522 lung
K-562 leukemia = test system: K-562 leukemia
IGROV1 ovarian = test system: IGROV1 ovarian
MDA-MB-435 = test system: MDA-MB-435
NCI/ADR-RES ovarian = test system: NCI/ADR-RES ovarian
HCT-116 colon = test system: HCT-116 colon
SNB-19 CNS = test system: SNB-19 CNS
SK-MEL-28 melanoma = test system: SK-MEL-28 melanoma
HL-60(TB) leukemia = test system: HL-60(TB) leukemia
OVCAR-3 ovarian = test system: OVCAR-3 ovarian
EKVX NSCLC = test system: EKVX NSCLC
SF-539 CNS = test system: SF-539 CNS
NCI-H460 lung = test system: NCI-H460 lung
DU-145 prostate = test system: DU-145 prostate
UACC-62 melanoma = test system: UACC-62 melanoma
M14 melanoma = test system: M14 melanoma
OVCAR-4 ovarian = test system: OVCAR-4 ovarian
A498 renal = test system: A498 renal
SK-OV-3 ovarian = test system: SK-OV-3 ovarian
RXF 393 renal = test system: RXF 393 renal
SK-MEL-5 melanoma = test system: SK-MEL-5 melanoma
KM12 colon = test system: KM12 colon
OVCAR-8 ovarian = test system: OVCAR-8 ovarian
CCRF-CEM leukemia = test system: CCRF-CEM leukemia
SN12C renal = test system: SN12C renal
NCI-H226 lung = test system: NCI-H226 lung
SW-620 colon = test system: SW-620 colon
HS 578T breast = test system: HS 578T breast
COLO 205 colon = test system: COLO 205 colon
SNB-75 CNS = test system: SNB-75 CNS
SF-295 CNS = test system: SF-295 CNS
A549 NSCLC = test system: A549 NSCLC
RPMI-8226 leukemia = test system: RPMI-8226 leukemia
T-47D breast = test system: T-47D breast
MCF7 breast = test system: MCF7 breast
786-0 renal = test system: 786-0 renal
MDA-MB-231 breast = test system: MDA-MB-231 breast
HT29 colon = test system: HT29 colon
U251 CNS = test system: U251 CNS
HCT-15 colon = test system: HCT-15 colon

## Nc1nc(/C=C\c2ccc([N+](=O)[O-])s2)nc(N2CCOCC2)n1
ACHN renal
  GI50: 5.06 µM
  TGI: 17.7 µM
SR leukemia
  GI50: 5.14 µM
  TGI: 20.3 µM
OVCAR-5 ovarian
  GI50: 22.2 µM
  TGI: 37.2 µM
HCC-2998 colon
  GI50: 5.18 µM
  TGI: 16.7 µM
CAKI-1 renal
  GI50: 19.7 µM
  TGI: 39.6 µM
NCI-H23 lung
  GI50: 10.2 µM
  TGI: 22.7 µM
MOLT-4 leukemia
  GI50: 11.1 µM
  TGI: 42.1 µM
SK-MEL-2 melanoma
  GI50: 17.4 µM
  TGI: 44.7 µM
UO-31 renal
  GI50: 14.9 µM
  TGI: 30.1 µM
BT-549 breast
  GI50: 9.29 µM
  TGI: 26.9 µM
HOP-92 NSCLC
  GI50: 13.2 µM
  TGI: 28.1 µM
LOX IMVI melanoma
  GI50: 2.12 µM
  TGI: 9.52 µM
TK-10 renal
  GI50: 22 µM
  TGI: 46.9 µM
PC-3 prostate
  GI50: 11.5 µM
  TGI: 28.1 µM
SF-268 CNS
  GI50: 8.24 µM
  TGI: 22 µM
UACC-257 melanoma
  GI50: 10.7 µM
  TGI: 23.1 µM
HOP-62 NSCLC
  GI50: 17.8 µM
  TGI: 32.9 µM
NCI-H522 lung
  GI50: 4.57 µM
  TGI: 17.1 µM
K-562 leukemia
  GI50: 7.71 µM
  TGI: 24.7 µM
IGROV1 ovarian
  GI50: 4.93 µM
  TGI: 19.8 µM
MDA-MB-435
  GI50: 8.19 µM
  TGI: 22.8 µM
NCI/ADR-RES ovarian
  GI50: 12.7 µM
  TGI: 33.3 µM
HCT-116 colon
  GI50: 2.98 µM
  TGI: 10.9 µM
SNB-19 CNS
  GI50: 23.3 µM
  TGI: 69.5 µM
SK-MEL-28 melanoma
  GI50: 17.9 µM
  TGI: 38.2 µM
HL-60(TB) leukemia
  GI50: 6.45 µM
  TGI: 26.2 µM
OVCAR-3 ovarian
  GI50: 15.2 µM
  TGI: 37.5 µM
EKVX NSCLC
  GI50: 17.8 µM
  TGI: 56.8 µM
SF-539 CNS
  GI50: 19.7 µM
  TGI: 46.3 µM
NCI-H460 lung
  GI50: 13.7 µM
  TGI: 26.6 µM
DU-145 prostate
  GI50: 11 µM
  TGI: 26.7 µM
UACC-62 melanoma
  GI50: 7.08 µM
  TGI: 19.7 µM
M14 melanoma
  GI50: 10.5 µM
  TGI: 24.7 µM
OVCAR-4 ovarian
  GI50: 2.65 µM
  TGI: 15.3 µM
A498 renal
  GI50: 9 µM
  TGI: 22.7 µM
SK-OV-3 ovarian
  GI50: 16.3 µM
  TGI: 43 µM
RXF 393 renal
  GI50: 11.1 µM
  TGI: 26.2 µM
SK-MEL-5 melanoma
  GI50: 5.84 µM
  TGI: 19.1 µM
KM12 colon
  GI50: 3.5 µM
  TGI: 16.5 µM
OVCAR-8 ovarian
  GI50: 13.7 µM
  TGI: > 100 µM
CCRF-CEM leukemia
  GI50: 3.33 µM
  TGI: 16.9 µM
SN12C renal
  GI50: 13 µM
  TGI: 26.4 µM
NCI-H226 lung
  GI50: 16 µM
  TGI: 46.2 µM
SW-620 colon
  GI50: 13.9 µM
  TGI: > 100 µM
HS 578T breast
  GI50: 25.6 µM
  TGI: > 100 µM
COLO 205 colon
  GI50: 2.08 µM
  TGI: 5.09 µM
SNB-75 CNS
  GI50: 13.8 µM
  TGI: 34.2 µM
SF-295 CNS
  GI50: 36.4 µM
  TGI: > 100 µM
A549 NSCLC
  GI50: 16.1 µM
  TGI: 32.6 µM
RPMI-8226 leukemia
  GI50: 3.45 µM
  TGI: 17.6 µM
T-47D breast
  GI50: 8.98 µM
  TGI: 28.1 µM
MCF7 breast
  GI50: 5.77 µM
  TGI: 19.5 µM
786-0 renal
  GI50: 15.8 µM
  TGI: 30.1 µM
MDA-MB-231 breast
  GI50: 5.55 µM
  TGI: 19.1 µM

## Cc1ccc(C2C3Cc4ccccc4C3=NN2c2ccc(S(=O)(=O)NC(=O)NC3CCCCC3)cc2)cc1 (configuration not stated)
ACHN renal
  GI50: 14.4 µM
  TGI: 28.5 µM
SR leukemia
  GI50: 6.25 µM
  TGI: 32.1 µM
OVCAR-5 ovarian
  GI50: 27.3 µM
  TGI: 55.7 µM
HCC-2998 colon
  GI50: 12.6 µM
  TGI: 28.6 µM
CAKI-1 renal
  GI50: 16 µM
  TGI: 42.1 µM
HT29 colon
  GI50: 24.5 µM
  TGI: > 100 µM
NCI-H23 lung
  GI50: 15.2 µM
  TGI: 37.1 µM
MOLT-4 leukemia
  GI50: 7.69 µM
  TGI: > 100 µM
SK-MEL-2 melanoma
  GI50: 18.6 µM
  TGI: 38.6 µM
UO-31 renal
  GI50: 11 µM
  TGI: 26.1 µM
BT-549 breast
  GI50: 18 µM
  TGI: 42.9 µM
HOP-92 NSCLC
  GI50: 11.6 µM
  TGI: 27.6 µM
LOX IMVI melanoma
  GI50: 17.8 µM
  TGI: 44.2 µM
TK-10 renal
  GI50: 11.7 µM
  TGI: 28.4 µM
PC-3 prostate
  GI50: 9.66 µM
  TGI: 26.2 µM
SF-268 CNS
  GI50: 25.3 µM
  TGI: > 100 µM
U251 CNS
  GI50: 13.2 µM
  TGI: 30.4 µM
UACC-257 melanoma
  GI50: 20.2 µM
  TGI: 39.7 µM
HOP-62 NSCLC
  GI50: 45.7 µM
  TGI: > 100 µM
NCI-H522 lung
  GI50: 5.92 µM
  TGI: 23.5 µM
K-562 leukemia
  GI50: 11.5 µM
  TGI: 52.3 µM
IGROV1 ovarian
  GI50: 5.75 µM
  TGI: 24.5 µM
MDA-MB-435
  GI50: 14.6 µM
  TGI: 41.3 µM
NCI/ADR-RES ovarian
  GI50: 13.4 µM
  TGI: 35.1 µM
HCT-116 colon
  GI50: 15.5 µM
  TGI: > 100 µM
SNB-19 CNS
  GI50: 21.3 µM
  TGI: 64 µM
SK-MEL-28 melanoma
  GI50: 19.9 µM
  TGI: 38 µM
HL-60(TB) leukemia
  GI50: 22.9 µM
  TGI: 59.7 µM
OVCAR-3 ovarian
  GI50: 15 µM
  TGI: 37.1 µM
EKVX NSCLC
  GI50: 20.2 µM
  TGI: 67.1 µM
SF-539 CNS
  GI50: 20.2 µM
  TGI: 40.7 µM
NCI-H460 lung
  GI50: 21.6 µM
  TGI: > 100 µM
DU-145 prostate
  GI50: 23.1 µM
  TGI: 78.9 µM
UACC-62 melanoma
  GI50: 12.7 µM
  TGI: 28.6 µM
M14 melanoma
  GI50: 33.5 µM
  TGI: > 100 µM
HCT-15 colon
  GI50: 19.4 µM
  TGI: 76.7 µM
OVCAR-4 ovarian
  GI50: 16.6 µM
  TGI: 39.2 µM
A498 renal
  GI50: 22.4 µM
  TGI: 39.6 µM
SK-OV-3 ovarian
  GI50: 20.4 µM
  TGI: 61.3 µM
RXF 393 renal
  GI50: 18.7 µM
  TGI: 54.5 µM
SK-MEL-5 melanoma
  GI50: 14.5 µM
  TGI: 30.3 µM
KM12 colon
  GI50: 11.3 µM
  TGI: 39.1 µM
OVCAR-8 ovarian
  GI50: 17.4 µM
  TGI: 43.6 µM
CCRF-CEM leukemia
  GI50: 8.33 µM
  TGI: 76.4 µM
SN12C renal
  GI50: 16.6 µM
  TGI: 33.1 µM
NCI-H226 lung
  GI50: 21.2 µM
  TGI: 54.6 µM
SW-620 colon
  GI50: 16.6 µM
  TGI: 40.1 µM
HS 578T breast
  GI50: 23.6 µM
  TGI: 62.7 µM
COLO 205 colon
  GI50: 14.7 µM
  TGI: 33.1 µM
SNB-75 CNS
  GI50: 44 µM
  TGI: > 100 µM
SF-295 CNS
  GI50: 17.9 µM
  TGI: 54.2 µM
A549 NSCLC
  GI50: 12 µM
  TGI: 27.5 µM
RPMI-8226 leukemia
  GI50: 5.44 µM
  TGI: 40.8 µM
T-47D breast
  GI50: 32.5 µM
  TGI: > 100 µM
MCF7 breast
  GI50: 13.5 µM
  TGI: > 100 µM
786-0 renal
  GI50: 28.6 µM
  TGI: > 100 µM
MDA-MB-231 breast
  GI50: 28.2 µM
  TGI: > 100 µM
